Earlier results as cited in patent US20250026710A1, “PROCESS FOR PREPARING A BENZOATE SALT OF A 1-(3-AMINOPYRROLIDINE-1-CARBONYL)-3,4-DIPHENYLBENZENE COMPOUND” (Astex Pharmaceuticals, Inc., priority 2021, published 2025).
Counter-ions that a name gives are not always drawn.

How the values were obtained:
[1] = rats, dose 32 mg/5 mL/kg; listed as benzoic acid salt of Compound (A)
[2] = under the tested conditions of WO 2021/095835

## CC(C)(O)Cc1ccc(-c2ccc(C(=O)N3CC[C@H](N)C3)cc2-c2ccc(C#N)c(F)c2)c(F)c1 [benzoate salt of Compound (A)]
[1]
  Cmax: 2680 nM
  Tmax: 2.7 h
[2]
  solid stability: superior solid stability and maintains its purity up to four weeks
